Measured values reported in EP2848696A1, “Caspase-1 imaging probes” (Sanofi-Aventis Deutschland GmbH, priority 2013, dated 2015).

Experiments:
[1] = Cellular toxicity (summary statement); assay type: cell-based; conditions: summary of biological assays
Caspase-1 [2] = biological target: T1, Caspase-1 (Homo sapiens, UniProt P29466); experiment: In vitro cleavage of the probe by caspase-1 (fluorescence / FRET change); assay type: biochemical; conditions: for in vitro cleavage: 10 µM probe, 10 nM caspase-1, E/S ratio 1/1000, 25 cycles: 1 min. intervals
T1 sequence (P29466 120-297 limits assumed): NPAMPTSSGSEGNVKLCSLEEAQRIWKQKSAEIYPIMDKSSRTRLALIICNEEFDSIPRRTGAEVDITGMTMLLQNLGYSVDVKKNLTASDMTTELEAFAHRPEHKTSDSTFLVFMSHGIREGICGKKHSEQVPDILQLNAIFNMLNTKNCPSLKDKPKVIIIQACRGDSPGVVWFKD
T1 sequence (P29466 317-404 limits assumed): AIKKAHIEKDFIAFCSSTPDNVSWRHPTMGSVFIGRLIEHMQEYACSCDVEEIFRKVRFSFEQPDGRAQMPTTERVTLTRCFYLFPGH
Protocol: (§1) The E/S ratio was 1/1000, 25 cycles: 1 min. intervals. • Figure 5: Cellular assay with Probe III; PMA=Phorbol-12-myristate-13-acetate; LPS=Lipopolysaccharide; zVAD=carbobenzoxy-valyl-alanyl-asparty-[O-methyl]-fluoromethylketone • Figure 6A-E: Kinetic characterization of probes II, VI, V, IV, and VII. • Figure 7: Cell permeability assay.

Caspase-1 [3] = biological target: T1, Caspase-1; experiment: Specificity of the probe towards caspase-1; assay type: biochemical; conditions: summary of biological assays
Protocol: as §1, with “The E/S ratio was 1/1000, 25 cycles: 1 min. intervals. • Figures 4A-C: show the in vitro cleavage of 10 µM probe VI in the presence of 10 nM caspase-1. […] The” for “The”

Protocol for THP-1 cells: THP-1 cells were differentiated with PMA in 4-well glass chambers for 48 hours. 2 hours before the assay zVAD-fmk was added to negative controls. Probes were then added to the cells in 5 µM final concentration and the probe uptake was studied by fluorescence microscopy.

**Q.** For `CCCCCCCCN(CCCCCCCC)c1ccc2c(COC(=O)CCCC(=O)NNC(=O)[C@H](CC(=O)O)NC(=O)[C@@H]3CCCN4C(=O)CC[C@H](NC(=O)c5cc6ccc(OC)cc6oc5=O)C(=O)N34)cc(=O)oc2c1` [Probe I], which “Cellular entry (time)” value (THP-1 cells) is on record?
**A.** - Cellular entry within 5-7 min.

**Q.** Which results are given for `CCN(CC)c1ccc2cc(C(=O)NNC(=O)[C@H](CC(=O)O)NC(=O)[C@@H]3CCCN4C(=O)CC[C@H](NC(=O)c5cc6ccc(OC)cc6oc5=O)C(=O)N34)c(=O)oc2c1` [Probe III]?
**A.** Cell permeability (THP-1 cells): - Cell permeability; toxicity [1]: - No sign of toxicity; in vitro cleavage (Caspase-1 [2]): cleaved very efficiently; FRET change (Caspase-1 [2]; Figure 1A, cleavage by caspase-1): about 10 fold; change of fluorescence intensity in response to cleavage by caspase-1 (Caspase-1 [2]; Figure 1A, dependence on enzyme dose): enzyme dose-dependent manner; FRET change (concentration dependence) (Caspase-1 [2]; summary of biological assays): - Concentration dependent FRET change; specificity (Caspase-1 [3]): - Superiorly specific

**Q.** With `CCN(CC)c1ccc2cc(C(=O)NCC(=O)NCCCCCCCCNC(=O)[C@H](CC(=O)O)NC(=O)[C@@H]3CCCN4C(=O)CC[C@H](NC(=O)c5cc6ccc(OC)cc6oc5=O)C(=O)N34)c(=O)oc2c1` [Probe VI] as the molecule, how does the in vitro cleavage (Caspase-1 [2]) read?
**A.** cleaved very efficiently
